From publication PMC6792352, “Limited Chemical Structural Diversity Found to Modulate Thyroid Hormone Receptor in the Tox21 Chemical Library” (Environmental Health Perspectives, 2019)
Where a name gives a salt, the structure may show the parent alone.

test: in vitro; conditions: rat, gh3-tre-luc cells, AC50 (uM) modified / 1000

Structure (SMILES) | CC50 at 24 h [µM]
Cc1cccc(C)c1NC(=O)CN1CCCCCC1 [Pincainide] | > 50
CCC(Cc1c(I)cc(I)c(O)c1I)C(=O)O (centres unmarked) [Iophenoxic acid] | > 50
CC1CN1 (centres unmarked) [Propyleneimine] | > 90
CN(C)c1ccc(Cc2ccc(N(C)C)cc2)cc1 [4,4'-Methylenebis(N,N-dimethylaniline)] | > 90
Cc1cc(NS(=O)(=O)c2ccc(N)cc2)nc(C)n1 [Sulfisomidine] | > 50
Cc1ccc2c(c1)C1CN(C)CCC1N2 (centres unmarked) [Dicarbine] | > 50
CN(CCCN1c2ccccc2CCc2ccccc21)CC(=O)c1ccc(Cl)cc1 [Lofepramine hydrochloride] | 22
CC(=O)O[C@H]1C[C@@H]2CC[C@@H]3[C@H](CC[C@@]4(C)[C@H]3C[C@H](N3CC[N+](C)(C)CC3)[C@@H]4OC(C)=O)[C@@]2(C)C[C@@H]1N1CC[N+](C)(C)CC1 [Pipecuronium bromide] | > 50
CC1(C)S[C@@H]2[C@H](NC(=O)[C@H](N)c3ccccc3)C(=O)N2[C@H]1C(=O)O [Ampicillin trihydrate] | > 90
CC(=O)OC1CCC(C(C)(C)C)CC1 (centres unmarked) [4-tert-Butylcyclohexyl acetate] | > 90
CS(=O)(=O)O [Methanesulfonic acid] | > 90
Nc1nccs1 [2-Aminothiazole] | > 90
OC(c1ccccc1)(c1ccccc1)C1CN2CCC1CC2 (centres unmarked) [Quifenadine] | 35.6
c1ccc2cc3ccccc3cc2c1 [Anthracene] | > 90
CC(O)C(CO)C(C)O (centres unmarked) [3-(Hydroxymethyl)pentane-2,4-diol] | > 90
CCCC(=O)OC(=O)CCC [Butanoic anhydride] | > 90
Nc1ncnc2c1ncn2CCOCP(=O)(O)O [Adefovir] | > 50
CN(C)c1cc(NC(=O)CNC(C)(C)C)c(O)c2c1C[C@H]1C[C@H]3[C@H](N(C)C)C(O)=C(C(N)=O)C(=O)[C@@]3(O)C(O)=C1C2=O [Tigecycline] | > 50
C/C=C/CC#N [3-Pentenenitrile] | > 90
S=C=S [Carbon disulfide] | > 90
C=C1/C(=C\C=C2/CCC[C@]3(C)[C@@H]([C@H](C)CCCC(C)C)CC[C@@H]23)C[C@@H](O)C[C@@H]1O [Alfacalcidol] | 14.8
O=[N+]([O-])c1cc(I)c(O)c(I)c1 [2,6-Diiodo-4-nitrophenol] | 24.5
CCCCc1oc2ccc(NS(C)(=O)=O)cc2c1C(=O)c1ccc(OCCCN(CCCC)CCCC)cc1 [Dronedarone] | 9.94
CC(C)(O)c1ccccc1 [2-Phenylpropan-2-ol] | > 90
Cc1cc(O)c(C(C)C)cc1Cl [6-Chlorothymol] | 66.1

Structure (SMILES) | CC50 at 24 h [µM]
CC(C)CCOCc1ccccc1 [Benzyl 3-methylbutyl ether] | > 90
CCOC(=O)C(C)C(C)=O (centres unmarked) [Ethyl-2-methyl acetoacetate] | > 90
COC(=O)CCCCC(=O)OC [Dimethyl adipate] | > 90
O=c1n(CCO)c(=O)n(CCO)c(=O)n1CCO [Tris(2-hydroxyethyl) isocyanurate] | > 90
O=C1C=CC(=O)N1c1ccccc1 [1-Phenyl-1H-pyrrole-2,5-dione] | 5.48
OC(CCl)CCl [1,3-Dichloro-2-propanol] | > 90
CCc1ccccc1 [Ethylbenzene] | > 90
COc1nc(N)nc2nc[nH]c12 [O6-Methylguanine] | > 90
CCC(C)c1cc([N+](=O)[O-])cc([N+](=O)[O-])c1OC(=O)C=C(C)C (centres unmarked) [Binapacryl] | 36.3
CCOC(=O)Nc1ccc(NCc2ccc(F)cc2)nc1N [Flupirtine maleate] | > 50
C1CCC2CCCCC2C1 (centres unmarked) [Decalin] | > 90
CC(C)(C)C(=O)OCOC(=O)[C@@H]1N2C(=O)[C@@H](N=CN3CCCCCC3)[C@H]2SC1(C)C [Pivmecillinam hydrochloride] | > 20
CC1(C)C[C@@H]1C(=O)N/C(=C\CCCCSC[C@H](N)C(=O)O)C(=O)O [Cilastatin sodium] | > 50
N#Cc1ccc(C2CCCc3cncn32)cc1 (centres unmarked) [Fadrozole hydrochloride] | > 40
CC(C)CC(=O)OCc1ccccc1 [Benzyl 3-methylbutanoate] | > 90
S=C(NC1CCCCC1)NC1CCCCC1 [N,N'-Dicyclohexylthiourea] | > 90
CC1=NN(c2ccccc2)C(=O)C1 [1-Phenyl-3-methyl-5-pyrazolone] | > 90
COCCC#N [3-Methoxypropionitrile] | > 90
CCCCCCCCCCCC(=O)N(CCO)CCO [N,N-Bis(2-hydroxyethyl)dodecanamide] | 42.5
CC/C(=N\OC/C=C/Cl)C1=C(O)CC(C2CCOCC2)CC1=O (centres unmarked) [Tepraloxydim] | > 90
O=C1c2ccccc2C(=O)C1c1ccc(F)cc1 [Fluindione] | > 50
CCCCCCCCCCCC(=O)OCC [Ethyl dodecanoate] | > 90
CCCCOC(=O)CC [Butyl propionate] | > 90
Cc1ccc(C)cc1 [p-Xylene] | > 90
C[C@]12C=CC(=O)N[C@@H]1CC[C@@H]1[C@@H]2CC[C@]2(C)[C@@H](C(=O)Nc3cc(C(F)(F)F)ccc3C(F)(F)F)CC[C@@H]12 [Dutasteride] | > 50

Structure (SMILES) | CC50 at 24 h [µM]
CC(C)[C@@H](N)C(=O)O [D-Valine] | > 50
O=C(O)C1=NN(c2ccc(S(=O)(=O)O)cc2)C(=O)C1 [Sodium 5-oxo-1-(4-sulfophenyl)-4,5-dihydro-1H-pyrazole-3-carboxylate] | > 90
ClC/C=C/CCl [(2E)-1,4-Dichlorobut-2-ene] | > 90
Nc1nc(N)nc(-c2ccccc2)n1 [6-Phenyl-1,3,5-triazine-2,4-diamine] | > 90
CC(NN)c1ccccc1 (centres unmarked) [Mebanazine] | > 50
CCCc1ccc(N)cc1 [4-Propylaniline] | > 90
CCCCCCC(C)OC(=O)CCCCC(=O)OC(C)CCCCCC (centres unmarked) [Diisooctyl adipate] | > 90
CCCC(C)C1(CC)C(=O)NC(=O)NC1=O (centres unmarked) [Pentobarbital] | > 50
O=C1CCCCCN1SSN1CCCCCC1=O [1,1'-Disulfanediyldiazepan-2-one] | 53.9
Fc1ccc(Oc2ccnc3cc(Cl)cc(Cl)c23)cc1 [Quinoxyfen] | 74.9
CC(C)(O)CCc1ccccc1 [2-Methyl-4-phenylbutan-2-ol] | > 90
CC(C)(C)[C@H](O)[C@H](Cc1ccc(Cl)cc1)n1cncn1 (racemic) [Paclobutrazol] | > 90
C[C@H]1C[C@H]2[C@@H]3CCC4=CC(=O)C=C[C@]4(C)[C@@]3(F)[C@@H](O)C[C@]2(C)[C@@]1(O)C(=O)CO [Betamethasone] | > 90
C=CCC1=C(C)[C@@H](OC(=O)[C@@H]2[C@@H](C=C(C)C)C2(C)C)CC1=O [S-Bioallethrin] | 32.6
CC(=O)NCCCS(=O)(=O)O [Acamprosate calcium] | > 40
CCC(=O)C(CC(C)N(C)C)(c1ccccc1)c1ccccc1 (centres unmarked) [Methadone hydrochloride] | 28.5
CCCCCCCCCCC [Undecane] | > 90
Clc1cccc(Cl)c1 [1,3-Dichlorobenzene] | > 90
O=C1NC(=O)c2cccc3cccc1c23 [1H-Benzo[de]isoquinoline-1,3(2H)-dione] | > 90
CC1CCc2c(N3CCC(O)CC3)c(F)cc3c(=O)c(C(=O)O)cn1c23 (centres unmarked) [Nadifloxacin] | > 50
C[N+]1(C)CCCC(OC(=O)C(O)(c2ccccc2)c2ccccc2)C1 (centres unmarked) [Mepenzolate bromide] | > 20
CC[C@H]1NC(=O)[C@@H](NC(=O)c2ncccc2O)[C@@H](C)OC(=O)[C@H](c2ccccc2)NC(=O)[C@@H]2CC(=O)CCN2C(=O)[C@H](Cc2ccccc2)N(C)C(=O)[C@@H]2CCCN2C1=O [Virginiamycin S1] | > 50
CC(=O)OC(C)C[N+](C)(C)C (centres unmarked) [Methacholine chloride] | > 20
COc1ccc(C[C@H](N)C(=O)N[C@H]2[C@@H](O)[C@H](n3cnc4c(N(C)C)ncnc43)O[C@@H]2CO)cc1 [Puromycin dihydrochloride] | 11.2
C=CC(C)(CCC=C(C)C)OC(=O)c1ccccc1N (centres unmarked) [Linalyl anthranilate] | > 90

same assay, conditions: rat, gh3-tre-luc cells, AC50 (uM) modified / 1000, Tox21_110001=Tox21_112862; viability, 1 nM T3 present, 24 h

Structure (SMILES) | CC50 at 24 h [µM]
Oc1ccc2c3c1O[C@H]1[C@@H](O)C=C[C@H]4[C@@H](C2)NCC[C@@]341 [N-Normorphine hydrochloride] | > 100

same assay, conditions: rat, gh3-tre-luc cells, AC50 (uM) modified / 1000, Tox21_110001=Tox21_113608; viability, 1 nM T3 present, 24 h

Structure (SMILES) | CC50 at 24 h [µM]
O=[P@]1(N(CCCl)CCCl)N[C@H](OO)CCO1 [4-Hydroperoxy cyclophosphamide] | > 50

same assay, conditions: rat, gh3-tre-luc cells, AC50 (uM) modified / 1000, Tox21_110001=Tox21_200129; viability, 1 nM T3 present, 24 h

Structure (SMILES) | CC50 at 24 h [µM]
SCc1ccccc1 [Benzenemethanethiol] | > 90

same assay, conditions: rat, gh3-tre-luc cells, AC50 (uM) modified / 1000, Tox21_110001=Tox21_201173; viability, 1 nM T3 present, 24 h

Structure (SMILES) | CC50 at 24 h [µM]
CCCCOC(=O)c1ccccc1N [Butyl anthranilate] | > 90

same assay, conditions: rat, gh3-tre-luc cells, AC50 (uM) modified / 1000, Tox21_110001=Tox21_201427; viability, 1 nM T3 present, 24 h

Structure (SMILES) | CC50 at 24 h [µM]
BrCCBr [1,2-Dibromoethane] | > 90

same assay, conditions: rat, gh3-tre-luc cells, AC50 (uM) modified / 1000, Tox21_110001=Tox21_201828; viability, 1 nM T3 present, 24 h

Structure (SMILES) | CC50 at 24 h [µM]
Sc1nc2ccccc2[nH]1 [2-Mercaptobenzimidazole] | > 90

same assay, conditions: rat, gh3-tre-luc cells, AC50 (uM) modified / 1000, Tox21_110001=Tox21_202719; viability, 1 nM T3 present, 24 h

Structure (SMILES) | CC50 at 24 h [µM]
CCCCCCBr [1-Bromohexane] | > 100

same assay, conditions: rat, gh3-tre-luc cells, AC50 (uM) modified / 1000, Tox21_110001=Tox21_300725; viability, 1 nM T3 present, 24 h

Structure (SMILES) | CC50 at 24 h [µM]
OCC(c1ccc(Cl)cc1)c1ccc(Cl)cc1 [2,2-Bis(4-chlorophenyl)ethanol] | > 90
